Experiment in all cases: relative viability (nuclei count vs DMSO), 5 days (fraction); higher = more cells survive
Compound in the experiment “KIN001-266 + Luminespib”: CCN1CCC(CC1)N2C=C(N=N2)CNC3=CC4=C(C(=CN=C4C(=C3)Cl)C#N)NC5=CC(=C(C=C5)F)Cl [KIN001-266] + CCNC(=O)c1noc(-c2cc(C(C)C)c(O)cc2O)c1-c1ccc(CN2CCOCC2)cc1 [Luminespib] (partner 0.01 µM)
The method in brief: (§1)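 Cells from lung cancer lines were seeded into 1536-well plates and, one day later, dosed by pin tool. Treatments were either a single drug or a fixed dose of an anchor drug with five library-drug doses (not always all listed) in √10 steps. After 5 days, nuclei were stained in a one-step fixation (final 0.05% Triton X-100, 1% formaldehyde, 1 ug/ml Hoechst) and counted on 4× images, and relative viability is the treated-to-vehicle nuclei ratio, as the median of duplicate plates.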

Compound in the experiment “KIN001-266 + Foretinib”: CCN1CCC(CC1)N2C=C(N=N2)CNC3=CC4=C(C(=CN=C4C(=C3)Cl)C#N)NC5=CC(=C(C=C5)F)Cl [KIN001-266] + COc1cc2c(Oc3ccc(NC(=O)C4(C(=O)Nc5ccc(F)cc5)CC4)cc3F)ccnc2cc1OCCCN1CCOCC1 [Foretinib] (partner 0.25 µM)
The method in brief: as §1

Compound in the experiment “KIN001-266 + Dasatinib”: CCN1CCC(CC1)N2C=C(N=N2)CNC3=CC4=C(C(=CN=C4C(=C3)Cl)C#N)NC5=CC(=C(C=C5)F)Cl [KIN001-266] + Cc1nc(Nc2ncc(C(=O)Nc3c(C)cccc3Cl)s2)cc(N2CCN(CCO)CC2)n1 [Dasatinib] (partner 0.075 µM)
Summed up:
as §1

Compound in the experiment “KIN001-266 + Decitabine”: CCN1CCC(CC1)N2C=C(N=N2)CNC3=CC4=C(C(=CN=C4C(=C3)Cl)C#N)NC5=CC(=C(C=C5)F)Cl [KIN001-266] + Nc1ncn([C@H]2C[C@H](O)[C@@H](CO)O2)c(=O)n1 [Decitabine] (partner 2 µM)
Summed up: as §1

On to 201T, for which the relative viability with KIN001-266 + Luminespib (first compound 0.08 µM) came out at 1.05; in the experiment with KIN001-266 + Luminespib (first compound 0.253 µM), 1.05; with KIN001-266 + Luminespib (first compound 0.8 µM), 1; with KIN001-266 + Luminespib (first compound 2.53 µM), 1.04; with KIN001-266 + Luminespib (first compound 8 µM), 1.06; with KIN001-266 + Foretinib (first compound 0.08 µM), 1.07. Moreover, the relative viability with KIN001-266 + Foretinib (first compound 0.253 µM) was 1.11; in the experiment with KIN001-266 + Foretinib (first compound 0.8 µM) it was 1.13; in the experiment with KIN001-266 + Foretinib (first compound 2.53 µM), 1.12; with KIN001-266 + Foretinib (first compound 8 µM), 1.14; in the experiment with KIN001-266 + Dasatinib (first compound 0.08 µM), 0.62; with KIN001-266 + Dasatinib (first compound 0.253 µM), 0.513. Further, the relative viability came to 0.545 with KIN001-266 + Dasatinib (first compound 0.8 µM); 0.606 with KIN001-266 + Dasatinib (first compound 2.53 µM); 0.589 in the experiment with KIN001-266 + Dasatinib (first compound 8 µM); 0.848 in the experiment with KIN001-266 + Decitabine (first compound 0.08 µM); 0.885 in the experiment with KIN001-266 + Decitabine (first compound 0.253 µM); 0.868 with KIN001-266 + Decitabine (first compound 0.8 µM). Also, the relative viability with KIN001-266 + Decitabine (first compound 2.53 µM) was found to be 0.78; in the experiment with KIN001-266 + Decitabine (first compound 8 µM), 0.842.
Turning to A549, the relative viability with KIN001-266 + Foretinib (first compound 0.08 µM) was 0.95; with KIN001-266 + Foretinib (first compound 0.253 µM), 0.854; with KIN001-266 + Foretinib (first compound 0.8 µM) it was 1.04; with KIN001-266 + Foretinib (first compound 2.53 µM) it was 0.87; with KIN001-266 + Foretinib (first compound 8 µM), 0.926; with KIN001-266 + Decitabine (first compound 0.08 µM), 0.401. Further, the relative viability is 0.207 in the experiment with KIN001-266 + Decitabine (first compound 0.253 µM), 0.24 with KIN001-266 + Decitabine (first compound 0.8 µM), 0.35 in the experiment with KIN001-266 + Decitabine (first compound 2.53 µM) and 0.223 with KIN001-266 + Decitabine (first compound 8 µM).
As to A-427, the relative viability with KIN001-266 + Luminespib (first compound 0.08 µM) was found to be 0.874; with KIN001-266 + Luminespib (first compound 0.253 µM) it was 0.843; with KIN001-266 + Luminespib (first compound 0.8 µM) it was 0.979; with KIN001-266 + Luminespib (first compound 2.53 µM), 0.913; in the experiment with KIN001-266 + Luminespib (first compound 8 µM) it was 0.969; in the experiment with KIN001-266 + Foretinib (first compound 0.08 µM) it was 1.06. The relative viability in the experiment with KIN001-266 + Foretinib (first compound 0.253 µM) came out at 1.07; with KIN001-266 + Foretinib (first compound 0.8 µM), 0.983; with KIN001-266 + Foretinib (first compound 2.53 µM), 0.992; with KIN001-266 + Foretinib (first compound 8 µM), 0.971; with KIN001-266 + Dasatinib (first compound 0.08 µM) it was 0.742; with KIN001-266 + Dasatinib (first compound 0.253 µM), 0.614. Further, the relative viability amounted to 0.661 with KIN001-266 + Dasatinib (first compound 0.8 µM); 0.686 with KIN001-266 + Dasatinib (first compound 2.53 µM); 0.575 with KIN001-266 + Dasatinib (first compound 8 µM); 0.616 in the experiment with KIN001-266 + Decitabine (first compound 0.08 µM); 0.566 in the experiment with KIN001-266 + Decitabine (first compound 0.253 µM); 0.521 with KIN001-266 + Decitabine (first compound 0.8 µM). Also, the relative viability came to 0.508 in the experiment with KIN001-266 + Decitabine (first compound 2.53 µM) and 0.535 with KIN001-266 + Decitabine (first compound 8 µM).
Take ABC-1: the relative viability came to 0.757 with KIN001-266 + Luminespib (first compound 0.08 µM); 0.956 in the experiment with KIN001-266 + Luminespib (first compound 0.253 µM); 0.655 with KIN001-266 + Luminespib (first compound 0.8 µM); 1.02 with KIN001-266 + Luminespib (first compound 2.53 µM); 0.378 with KIN001-266 + Luminespib (first compound 8 µM); 1.02 with KIN001-266 + Foretinib (first compound 0.08 µM). In addition, the relative viability with KIN001-266 + Foretinib (first compound 0.253 µM) worked out at 1.12; with KIN001-266 + Foretinib (first compound 0.8 µM), 1.1; with KIN001-266 + Foretinib (first compound 2.53 µM), 1.08; with KIN001-266 + Foretinib (first compound 8 µM) it was 0.873; with KIN001-266 + Dasatinib (first compound 0.08 µM), 0.521; with KIN001-266 + Dasatinib (first compound 0.253 µM) it was 0.632. Moreover, the relative viability in the experiment with KIN001-266 + Dasatinib (first compound 0.8 µM) was determined as 0.652; in the experiment with KIN001-266 + Dasatinib (first compound 2.53 µM) it was 0.489; in the experiment with KIN001-266 + Dasatinib (first compound 8 µM), 0.399; with KIN001-266 + Decitabine (first compound 0.08 µM) it was 1.19; with KIN001-266 + Decitabine (first compound 0.253 µM) it was 1.18; with KIN001-266 + Decitabine (first compound 0.8 µM), 1.07. In addition, the relative viability in the experiment with KIN001-266 + Decitabine (first compound 2.53 µM) was determined as 1.09; in the experiment with KIN001-266 + Decitabine (first compound 8 µM) it was 0.855.
As for BEN, the relative viability is 0.559 with KIN001-266 + Luminespib (first compound 0.08 µM); 0.651 with KIN001-266 + Luminespib (first compound 0.253 µM); 0.861 with KIN001-266 + Luminespib (first compound 0.8 µM); 0.288 with KIN001-266 + Luminespib (first compound 2.53 µM); 0.458 in the experiment with KIN001-266 + Luminespib (first compound 8 µM); 0.708 in the experiment with KIN001-266 + Foretinib (first compound 0.08 µM). Also, the relative viability in the experiment with KIN001-266 + Foretinib (first compound 0.253 µM) is 0.88; with KIN001-266 + Foretinib (first compound 0.8 µM) it was 0.755; in the experiment with KIN001-266 + Foretinib (first compound 2.53 µM) it was 0.407; with KIN001-266 + Foretinib (first compound 8 µM), 0.691; in the experiment with KIN001-266 + Dasatinib (first compound 0.08 µM) it was 0.296; in the experiment with KIN001-266 + Dasatinib (first compound 0.253 µM) it was 0.362. In addition, the relative viability with KIN001-266 + Dasatinib (first compound 0.8 µM) came out at 0.292; with KIN001-266 + Dasatinib (first compound 2.53 µM), 0.274; with KIN001-266 + Dasatinib (first compound 8 µM), 0.345; with KIN001-266 + Decitabine (first compound 0.08 µM), 0.975; in the experiment with KIN001-266 + Decitabine (first compound 0.253 µM), 0.696; in the experiment with KIN001-266 + Decitabine (first compound 0.8 µM), 0.754. Moreover, the values for the relative viability with KIN001-266 + Decitabine (first compound 2.53 µM) and with KIN001-266 + Decitabine (first compound 8 µM) were 0.623 and 0.752, respectively.
Take CAL-12T: the relative viability was found to be 0.363 with KIN001-266 + Luminespib (first compound 0.08 µM); 0.322 in the experiment with KIN001-266 + Luminespib (first compound 0.253 µM); 0.499 in the experiment with KIN001-266 + Luminespib (first compound 0.8 µM); 0.475 with KIN001-266 + Luminespib (first compound 2.53 µM); 0.2 with KIN001-266 + Luminespib (first compound 8 µM); 1.21 with KIN001-266 + Foretinib (first compound 0.08 µM). In addition, the relative viability in the experiment with KIN001-266 + Foretinib (first compound 0.253 µM) came to 1.01; in the experiment with KIN001-266 + Foretinib (first compound 0.8 µM) it was 1.02; in the experiment with KIN001-266 + Foretinib (first compound 2.53 µM) it was 0.974; with KIN001-266 + Foretinib (first compound 8 µM), 1.11; with KIN001-266 + Dasatinib (first compound 0.08 µM), 0.444; with KIN001-266 + Dasatinib (first compound 0.253 µM), 0.49. In addition, the relative viability with KIN001-266 + Dasatinib (first compound 0.8 µM) turned out to be 0.345; with KIN001-266 + Dasatinib (first compound 2.53 µM), 0.52; with KIN001-266 + Dasatinib (first compound 8 µM), 0.278.
Regarding COR-L23, the relative viability in the experiment with KIN001-266 + Luminespib (first compound 0.08 µM) turned out to be 0.638; in the experiment with KIN001-266 + Luminespib (first compound 0.253 µM), 0.636; with KIN001-266 + Luminespib (first compound 0.8 µM) it was 0.694; with KIN001-266 + Luminespib (first compound 2.53 µM) it was 0.621; in the experiment with KIN001-266 + Luminespib (first compound 8 µM), 0.423; with KIN001-266 + Foretinib (first compound 0.08 µM), 0.905. For the same cell line, the relative viability with KIN001-266 + Foretinib (first compound 0.253 µM) is 0.944; in the experiment with KIN001-266 + Foretinib (first compound 0.8 µM), 0.869; with KIN001-266 + Foretinib (first compound 2.53 µM), 0.933; with KIN001-266 + Foretinib (first compound 8 µM) it was 0.776; with KIN001-266 + Dasatinib (first compound 0.08 µM), 0.523; with KIN001-266 + Dasatinib (first compound 0.253 µM), 0.495. Besides, the relative viability is 0.476 with KIN001-266 + Dasatinib (first compound 0.8 µM); 0.484 in the experiment with KIN001-266 + Dasatinib (first compound 2.53 µM); 0.372 with KIN001-266 + Dasatinib (first compound 8 µM); 0.487 with KIN001-266 + Decitabine (first compound 0.08 µM); 0.497 with KIN001-266 + Decitabine (first compound 0.253 µM); 0.466 with KIN001-266 + Decitabine (first compound 0.8 µM). Besides, the relative viability with KIN001-266 + Decitabine (first compound 2.53 µM) was 0.464; in the experiment with KIN001-266 + Decitabine (first compound 8 µM), 0.389.

The values above are taken from the supplement of paper PMC10307832.
